Drawing on ChEMBL document CHEMBL3397017, “Discovery of a new series of potent prostacyclin receptor agonists with in vivo activity in rat” (Bioorg Med Chem Lett, 2015), this text covers Intrinsic activity, EC50 and Stability for 28 compounds.

Structures are written as SMILES.

The target of series [1] is T1, Prostacyclin receptor (Homo sapiens, UniProt P43119). As to the kind of experiment: Intrinsic activity at human recombinant IP receptor expressed in CHO-K1 cells incubated for 1 hr by HTRF cAMP assay relative to 1 uM iloprost. Format: functional, cell-based. (In TR-FRET formats the signal depends on donor and acceptor labels being close together.)
The target of series [2] is Prostacyclin receptor (Rattus norvegicus, UniProt P43253). As to the kind of experiment: Agonist activity at rat recombinant IP receptor expressed in CHO-K1 cells incubated for 1 hr by HTRF cAMP assay. The class given is functional, cell-based.
Series [3] deals with T1, Prostacyclin receptor. As to the kind of experiment: Agonist activity at human recombinant IP receptor expressed in CHO-K1 cells incubated for 1 hr by HTRF cAMP assay. The class given is functional, cell-based.
In series [4] the target is T2, Prostaglandin D2 receptor (Homo sapiens, UniProt Q13258).
T2 sequence (Q13258 whole entry): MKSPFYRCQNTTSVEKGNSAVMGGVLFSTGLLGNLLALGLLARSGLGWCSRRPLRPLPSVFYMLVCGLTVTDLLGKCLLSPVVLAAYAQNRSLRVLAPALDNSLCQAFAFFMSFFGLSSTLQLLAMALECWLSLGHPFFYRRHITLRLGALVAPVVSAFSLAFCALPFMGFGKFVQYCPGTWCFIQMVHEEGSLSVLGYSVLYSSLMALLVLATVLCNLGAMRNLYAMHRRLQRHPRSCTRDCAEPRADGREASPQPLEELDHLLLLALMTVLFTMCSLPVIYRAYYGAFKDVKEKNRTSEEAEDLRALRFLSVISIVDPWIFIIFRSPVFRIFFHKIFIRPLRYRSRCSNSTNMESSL
Put plainly: Agonist activity at human recombinant DP1 receptor expressed in melanophores assessed as induction of pigment redistribution incubated for 90 mins.

Series [5] has as its target Prostacyclin receptor (Rattus norvegicus) (UniProt P43253). Put plainly: Intrinsic activity at rat recombinant IP receptor expressed in CHO-K1 cells incubated for 1 hr by HTRF cAMP assay relative to 1 uM iloprost. The class given is functional, cell-based.
For series [6], the system named is Liver microsome. Put plainly: Stability in human liver microsomes. The class given is ADME.
Series [7] relates to Liver microsome. As to the kind of experiment: Stability in rat liver microsomes. Format: ADME.

Prostacyclin receptor (Rattus norvegicus), sequence (P43253 whole entry): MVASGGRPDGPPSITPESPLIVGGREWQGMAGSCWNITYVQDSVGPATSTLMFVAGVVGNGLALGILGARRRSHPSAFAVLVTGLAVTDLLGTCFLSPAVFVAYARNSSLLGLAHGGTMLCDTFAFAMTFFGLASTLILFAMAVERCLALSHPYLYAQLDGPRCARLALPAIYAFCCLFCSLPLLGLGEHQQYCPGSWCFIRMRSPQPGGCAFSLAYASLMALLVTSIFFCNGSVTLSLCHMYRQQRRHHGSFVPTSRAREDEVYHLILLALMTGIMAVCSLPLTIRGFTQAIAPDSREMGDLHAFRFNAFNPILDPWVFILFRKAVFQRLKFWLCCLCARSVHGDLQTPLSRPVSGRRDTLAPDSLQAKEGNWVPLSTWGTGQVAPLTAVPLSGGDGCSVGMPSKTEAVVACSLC
Prostacyclin receptor (Rattus norvegicus, UniProt P43253), sequence (P43253 whole entry): as above
T1 sequence (P43119 whole entry): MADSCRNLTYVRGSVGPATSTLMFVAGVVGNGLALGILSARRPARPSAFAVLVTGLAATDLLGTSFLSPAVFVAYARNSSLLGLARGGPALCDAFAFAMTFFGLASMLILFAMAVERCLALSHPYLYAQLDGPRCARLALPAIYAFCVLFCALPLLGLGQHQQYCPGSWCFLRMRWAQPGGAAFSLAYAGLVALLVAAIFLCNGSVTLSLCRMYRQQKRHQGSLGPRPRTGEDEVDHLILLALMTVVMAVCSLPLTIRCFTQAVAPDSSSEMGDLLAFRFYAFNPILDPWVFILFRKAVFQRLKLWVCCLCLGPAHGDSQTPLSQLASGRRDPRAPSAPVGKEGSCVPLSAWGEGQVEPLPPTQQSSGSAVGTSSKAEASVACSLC

A word on the EC50: it is the concentration that produces a half-maximal response. Regarding `Cc1cccc(-c2cc(=O)n(CC3CCc4c(cccc4OCC(=O)O)C3)nc2-c2ccccc2)c1` (racemic), the Intrinsic activity came out at 97% at Prostacyclin receptor [1] and 72% in series [5]. The EC50 at Prostacyclin receptor [2] was found to be 370 nM; at Prostacyclin receptor [3] it was 180 nM; in series [4], 25 nM.
As for `O=C(O)COc1cccc2c1CCC(Cn1nc(-c3ccccc3)c(-c3cccc(F)c3)cc1=O)C2` (racemic), the Intrinsic activity was 63% at Prostacyclin receptor [1] and 97% in series [5]. For the same compound, the EC50 on Prostacyclin receptor [2] was found to be 900 nM; at Prostacyclin receptor [3], 380 nM; in series [4], 44 nM.
For the compound `O=C(O)COc1cccc2c1CCC(Cn1ncc(-c3cccc(F)c3)c(-c3ccccc3)c1=O)C2` (racemic), the Intrinsic activity on Prostacyclin receptor [1] was 82%; in series [5] it was 103%. In addition, the EC50 at Prostacyclin receptor [2] is 410 nM; on Prostacyclin receptor [3], 60 nM; in series [4] it was 88 nM.
With `COc1cccc(-c2cc(=O)n(CC3CCc4c(cccc4OCC(=O)O)C3)nc2-c2ccc(C)cc2)c1` (racemic), the results for the Intrinsic activity (at Prostacyclin receptor [1]; in series [5]) were 81% and 107%, respectively. The results for the EC50 (at Prostacyclin receptor [2]; at Prostacyclin receptor [3]; in series [4]) were 28 nM, 9.5 nM and 11 nM, respectively.
On to `COc1ccc(-c2nn(CC3CCc4c(cccc4OCC(=O)O)C3)c(=O)cc2-c2ccccc2)c(F)c1` (racemic), for which the figures for the Intrinsic activity (at Prostacyclin receptor [1]; in series [5]) were 78% and 76%, respectively. In addition, the Stability result with Liver microsome [6] and with Liver microsome [7] was “Unstable” in each case. In addition, the concentration for a half-maximal effect (EC50) at Prostacyclin receptor [2] came out at 112 nM; on Prostacyclin receptor [3], 20 nM; in series [4], 31 nM.
For the compound `COc1ccc(-c2cc(=O)n(CC3CCc4c(cccc4OCC(=O)O)C3)nc2-c2ccccc2)cc1` (racemic), at Prostacyclin receptor [1], the Intrinsic activity stood at 47%. Further, the Stability entry in the series with Liver microsome [6] and in the series on Liver microsome [7] was “Unstable” throughout. The EC50 on Prostacyclin receptor [2] was > 10000 nM; on Prostacyclin receptor [3], 2670 nM.
As to `COc1ccc(-c2nn(CC3CCc4c(cccc4OCC(=O)O)C3)c(=O)cc2-c2ccccc2)cc1` (racemic), the results for the Intrinsic activity (at Prostacyclin receptor [1]; in series [5]) were 80% and 93%, respectively. Also, the Stability entry in the series with Liver microsome [6] and in the series on Liver microsome [7] was “Unstable” each time. For the same compound, the EC50 on Prostacyclin receptor [2] was found to be 12.5 nM; at Prostacyclin receptor [3], 8.5 nM; in series [4] it was 1.7 nM.
Consider `O=C(O)COc1cccc2c1CCC(Cn1ncc(-c3ccccc3)c(-c3ccccc3)c1=O)C2` (racemic), for which the figures for the Intrinsic activity (at Prostacyclin receptor [1]; in series [5]) were 75% and 88%, respectively. Moreover, the figures for the EC50 (at Prostacyclin receptor [2]; at Prostacyclin receptor [3]; in series [4]) were 260 nM, 100 nM and 180 nM, respectively.
Turning to `COc1cccc(-c2cc(=O)n(CC3CCc4c(cccc4OCC(=O)O)C3)nc2-c2ccc(F)cc2)c1` (racemic), the Intrinsic activity is 91% at Prostacyclin receptor [1] and 102% in series [5]. The EC50 on Prostacyclin receptor [2] amounted to 620 nM; at Prostacyclin receptor [3], 62 nM; in series [4] it was 24 nM.
For the compound `COc1cccc(-c2cnn(CC3CCc4c(cccc4OCC(=O)O)C3)c(=O)c2-c2ccccc2)c1` (racemic), the values for the Intrinsic activity (on Prostacyclin receptor [1]; in series [5]) were 101% and 81%, respectively. The Stability result in the series with Liver microsome [6] and in the series with Liver microsome [7] was “Unstable” in each case. Moreover, the EC50 at Prostacyclin receptor [2] was determined as 690 nM; at Prostacyclin receptor [3] it was 140 nM; in series [4], 48 nM.
On to `COc1ccc(-c2cnn(CC3CCc4c(cccc4OCC(=O)O)C3)c(=O)c2-c2ccccc2)cc1` (racemic), for which the Intrinsic activity on Prostacyclin receptor [1] turned out to be 73%. In addition, the Stability result with Liver microsome [6] and in the series on Liver microsome [7] was “Unstable” throughout. For the same compound, the EC50 on Prostacyclin receptor [2] was > 3000 nM; at Prostacyclin receptor [3], 1060 nM.
Take `O=C(O)COc1cccc2c1CCC(Cn1ncc(-c3cccc(F)c3F)c(-c3ccc(F)cc3)c1=O)C2` (racemic): the Intrinsic activity on Prostacyclin receptor [1] worked out at 94%; in series [5], 103%. The EC50 was 266 nM on Prostacyclin receptor [2], 33 nM on Prostacyclin receptor [3] and 42 nM in series [4].
Regarding `COc1cccc(-c2cc(=O)n(CC3CCc4c(cccc4OCC(=O)O)C3)nc2-c2ccccc2)c1F` (racemic), the Intrinsic activity came to 97% at Prostacyclin receptor [1] and 85% in series [5]. In addition, the Stability entry with Liver microsome [6] and with Liver microsome [7] was “Unstable” in each case. The EC50 on Prostacyclin receptor [2] is 350 nM; on Prostacyclin receptor [3] it was 37 nM; in series [4], 6 nM.
With `COc1ccc(-c2c(-c3ccccc3)cnn(CC3CCc4c(cccc4OCC(=O)O)C3)c2=O)cc1` (racemic), the Intrinsic activity at Prostacyclin receptor [1] was determined as 72%; in series [5], 105%. Further, the Stability result in the series with Liver microsome [6] and in the series on Liver microsome [7] was “Unstable” throughout. Besides, the half-maximal effective concentration (EC50) was 11 nM on Prostacyclin receptor [2] and 4 nM on Prostacyclin receptor [3].
For `COc1ccc(-c2nn(CC3CCc4c(cccc4OCC(=O)O)C3)c(=O)cc2-c2ccccc2)cc1F` (racemic), the Intrinsic activity at Prostacyclin receptor [1] came to 80%; in series [5] it was 75%. Also, the Stability result with Liver microsome [6] and with Liver microsome [7] was “Unstable” in each case. Also, the EC50 amounted to 51 nM at Prostacyclin receptor [2], 10 nM at Prostacyclin receptor [3] and 3 nM in series [4].
As to `O=C(O)COc1cccc2c1CCC(Cn1ncc(-c3ccccc3)c(-c3cccc(F)c3)c1=O)C2` (racemic), the Intrinsic activity on Prostacyclin receptor [1] worked out at 100%; in series [5], 121%. Moreover, the figures for the EC50 at Prostacyclin receptor [2] and on Prostacyclin receptor [3] were 790 nM and 260 nM, respectively.
With `O=C(O)COc1cccc2c1CCC(Cn1nc(-c3ccccc3)c(-c3ccccc3)cc1=O)C2` (racemic), the Intrinsic activity on Prostacyclin receptor [1] turned out to be 60%; in series [5], 70%. Further, the EC50 on Prostacyclin receptor [2] worked out at 2190 nM; at Prostacyclin receptor [3] it was 969 nM; in series [4], 21 nM.
As to `COc1ccc(-c2c(-c3ccccc3)cnn(CC3CCc4c(cccc4OCC(=O)O)C3)c2=O)cc1F` (racemic), the Intrinsic activity was determined as 84% at Prostacyclin receptor [1] and 100% in series [5]. Further, the Stability result in the series with Liver microsome [6] and in the series on Liver microsome [7] was “Unstable” throughout. Besides, the EC50 on Prostacyclin receptor [2] was determined as 174 nM; on Prostacyclin receptor [3], 85 nM.
`COc1cccc(-c2cnn(CC3CCc4c(cccc4OCC(=O)O)C3)c(=O)c2-c2ccccc2)c1F` (racemic): the Intrinsic activity at Prostacyclin receptor [1] stood at 78%; in series [5], 98%. The Stability entry in the series with Liver microsome [6] and with Liver microsome [7] was “Unstable” each time. Further, the EC50 on Prostacyclin receptor [2] turned out to be 40 nM; on Prostacyclin receptor [3], 10 nM; in series [4] it was 40 nM.
As to `COc1cccc(-c2nn(CC3CCc4c(cccc4OCC(=O)O)C3)c(=O)cc2-c2ccccc2)c1` (racemic), at Prostacyclin receptor [1], the Intrinsic activity stood at 87%. Further, the Stability entry with Liver microsome [6] and in the series with Liver microsome [7] was “Unstable” in each case. Also, the EC50 on Prostacyclin receptor [2] was > 10000 nM; on Prostacyclin receptor [3] it was 1720 nM.
`O=C(O)COc1cccc2c1CCC(Cn1ncc(-c3ccccc3)c(-c3ccccc3F)c1=O)C2` (racemic): the Intrinsic activity on Prostacyclin receptor [1] stood at 91%; in series [5] it was 116%. For the same compound, the EC50 is 370 nM on Prostacyclin receptor [2] and 140 nM on Prostacyclin receptor [3].
Take `O=C(O)COc1cccc2c1CCC(Cn1ncc(-c3ccccc3F)c(-c3ccccc3)c1=O)C2` (racemic): the Intrinsic activity came out at 106% on Prostacyclin receptor [1] and 99% in series [5]. Besides, the EC50 at Prostacyclin receptor [2] was 420 nM; on Prostacyclin receptor [3], 120 nM; in series [4] it was 31 nM.
Regarding `O=C(O)COc1cccc2c1CCC(Cn1ncc(-c3ccccc3)c(-c3ccc(F)cc3)c1=O)C2` (racemic), the Intrinsic activity on Prostacyclin receptor [1] came out at 80%; in series [5], 104%. Also, the EC50 on Prostacyclin receptor [2] was 170 nM; at Prostacyclin receptor [3], 20 nM.
On to `O=C(O)COc1cccc2c1CCC(Cn1nc(-c3cccc(F)c3)c(-c3ccccc3)cc1=O)C2` (racemic), for which the Intrinsic activity at Prostacyclin receptor [1] worked out at 88%; in series [5], 99%. For the same compound, the results for the half-maximal effective concentration (EC50) on Prostacyclin receptor [2] and on Prostacyclin receptor [3] were 2370 nM and 1060 nM, respectively.
For `O=C(O)COc1cccc2c1CCC(Cn1ncc(-c3cccc(Cl)c3)c(-c3ccccc3)c1=O)C2` (racemic), in that order: 93%, 98%, 260 nM and 86 nM.
With `Cc1ccc(-c2nn(CC3CCc4c(cccc4OCC(=O)O)C3)c(=O)cc2-c2ccccc2)cc1` (racemic), the Intrinsic activity on Prostacyclin receptor [1] was 67%; in series [5], 99%. Moreover, the EC50 on Prostacyclin receptor [2] worked out at 120 nM; at Prostacyclin receptor [3], 24 nM.
`O=C(O)COc1cccc2c1CCC(Cn1nc(-c3ccccc3)c(-c3cccc(Cl)c3)cc1=O)C2` (racemic): the Intrinsic activity at Prostacyclin receptor [1] was found to be 77%; in series [5], 62%. Moreover, the EC50 at Prostacyclin receptor [2] stood at 360 nM; at Prostacyclin receptor [3] it was 60 nM; in series [4] it was 61 nM.
`O=C(O)COc1cccc2c1CCC(Cn1nc(-c3ccc(F)cc3)c(-c3ccccc3)cc1=O)C2` (racemic): the figures for the Intrinsic activity (on Prostacyclin receptor [1]; in series [5]) were 89% and 93%, respectively. The half-maximal effective concentration (EC50) was 1500 nM on Prostacyclin receptor [2] and 114 nM on Prostacyclin receptor [3].
